Here are results for eleven molecules from ChEMBL document CHEMBL3608294, “Epoxylathyrol Derivatives: Modulation of ABCB1-Mediated Multidrug Resistance in Human Colon Adenocarcinoma and Mouse T-Lymphoma Cells” (J Nat Prod, 2015).

Data set [1] has as its target T1, ATP-dependent translocase ABCB1 (Homo sapiens, UniProt P08183). Briefly: Inhibition of human ABCB1 expressed in mouse L5178Y cells assessed as fluorescence activity ratio at 2 uM incubated for 10 mins by flow cytometry based rhodamine-123 accumulation assay (reference value: 0.78). In kind it is cell-based.
Data set [2] addresses T1, ATP-dependent translocase ABCB1. The experiment in a line: Inhibition of human ABCB1 expressed in mouse L5178Y cells assessed as fluorescence activity ratio at 20 uM incubated for 10 mins by flow cytometry based rhodamine-123 accumulation assay (reference value: 0.78). In kind it is cell-based.
For data set [3] the target is unchanged. Briefly: Inhibition of ABCB1 in multidrug resistant human COLO320 cells assessed as fluorescence activity ratio at 2 uM incubated for 10 mins by flow cytometry based rhodamine-123 accumulation assay (reference value: 0.62). (In flow cytometry, cells or beads pass a laser one at a time.)
For data set [4] the target is unchanged. Briefly: Inhibition of ABCB1 in multidrug resistant human COLO320 cells assessed as fluorescence activity ratio at 20 uM incubated for 10 mins by flow cytometry based rhodamine-123 accumulation assay (reference value: 0.62).
The test system of data set [5] is L5178Y. Briefly: Antiproliferative activity against chemosensitive wild type parental mouse L5178Y cells incubated for 72 hrs by MTT assay. In kind it is functional, cell-based. A general note: Tetrazolium assays rely on reduction of a dye to a coloured formazan, in cell work by metabolically active cells.
Data set [6] deals with L5178Y. The experiment in a line: Antiproliferative activity against human ABCB1 expressing mouse L5178Y cells incubated for 72 hrs by MTT assay. In kind it is functional, cell-based.
The nature of data set [7]: Antiproliferative activity against chemosensitive human COLO205 cells incubated for 72 hrs by MTT assay. In kind it is functional, cell-based. Particulars: COLO 205, 72 h.
Data set [8] is described as follows: Antiproliferative activity against multidrug resistant human COLO320 cells incubated for 72 hrs by MTT assay. The format is functional. Conditions: COLO 320, 72 h.
Data set [9] deals with L5178Y. Briefly: Cytotoxicity against chemosensitive wild type parental mouse L5178Y cells incubated for 24 hrs by MTT assay. The format is functional, cell-based.
Data set [10] relates to L5178Y. Briefly: Cytotoxicity against human ABCB1 expressing mouse L5178Y cells incubated for 24 hrs by MTT assay. The format is functional, cell-based.
A further data set concerns COLO 205. The experiment in a line: Cytotoxicity against chemosensitive human COLO205 cells incubated for 24 hrs by MTT assay. In kind it is functional, cell-based. Conditions: COLO 205, 24 h.
Data set [11] is described as follows: Cytotoxicity against multidrug resistant human COLO320 cells incubated for 24 hrs by MTT assay. In kind it is functional, cell-based. Conditions: COLO 320, 24 h.
A short description of data set [12]: Selectivity index, ratio of antiproliferative IC50 for chemosensitive human COLO205 cells to antiproliferative IC50 for multidrug resistant human COLO320 cells. In kind it is functional, COLO 205.

The term IC50 denotes the midpoint of a concentration-inhibition curve.

Each structure is given as a SMILES string.

T1 sequence (P08183 whole entry): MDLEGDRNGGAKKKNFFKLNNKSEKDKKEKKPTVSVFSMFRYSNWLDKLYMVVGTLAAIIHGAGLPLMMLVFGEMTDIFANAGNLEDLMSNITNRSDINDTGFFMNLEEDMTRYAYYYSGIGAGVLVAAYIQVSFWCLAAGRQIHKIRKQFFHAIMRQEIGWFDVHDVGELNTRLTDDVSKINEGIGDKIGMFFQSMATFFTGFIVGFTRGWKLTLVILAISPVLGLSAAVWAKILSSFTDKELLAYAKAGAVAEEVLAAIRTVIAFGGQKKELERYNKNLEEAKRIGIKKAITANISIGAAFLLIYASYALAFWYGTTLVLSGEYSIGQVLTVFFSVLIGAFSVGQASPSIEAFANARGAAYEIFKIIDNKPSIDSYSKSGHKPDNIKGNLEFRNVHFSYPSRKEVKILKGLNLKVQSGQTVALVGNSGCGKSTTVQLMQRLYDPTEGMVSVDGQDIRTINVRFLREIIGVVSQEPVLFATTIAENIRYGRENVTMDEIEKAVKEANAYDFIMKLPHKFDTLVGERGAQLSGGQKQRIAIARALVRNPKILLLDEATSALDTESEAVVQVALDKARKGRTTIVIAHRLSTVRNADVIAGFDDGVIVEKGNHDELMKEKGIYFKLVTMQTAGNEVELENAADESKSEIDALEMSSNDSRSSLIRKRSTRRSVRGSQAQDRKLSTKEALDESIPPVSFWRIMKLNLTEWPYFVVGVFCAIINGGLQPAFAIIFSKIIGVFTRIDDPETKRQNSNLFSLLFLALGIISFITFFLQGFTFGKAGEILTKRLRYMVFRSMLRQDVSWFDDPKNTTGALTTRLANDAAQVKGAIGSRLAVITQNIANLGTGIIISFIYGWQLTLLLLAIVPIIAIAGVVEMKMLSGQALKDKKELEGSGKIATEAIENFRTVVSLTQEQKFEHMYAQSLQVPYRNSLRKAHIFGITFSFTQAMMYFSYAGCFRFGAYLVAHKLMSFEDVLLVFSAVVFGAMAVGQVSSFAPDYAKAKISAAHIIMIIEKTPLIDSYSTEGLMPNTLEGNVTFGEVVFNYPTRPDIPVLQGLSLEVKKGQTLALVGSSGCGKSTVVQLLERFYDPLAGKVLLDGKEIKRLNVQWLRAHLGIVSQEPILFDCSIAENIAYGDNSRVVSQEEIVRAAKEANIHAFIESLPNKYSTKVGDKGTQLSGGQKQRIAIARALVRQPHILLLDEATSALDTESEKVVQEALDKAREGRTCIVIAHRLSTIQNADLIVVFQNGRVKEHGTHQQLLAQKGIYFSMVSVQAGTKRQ

Turning to `C/C1=C\[C@@H]2[C@H](CC[C@]3(CO3)[C@H](O)[C@H]3[C@@H](O)[C@@H](C)C[C@]3(O)C1=O)C2(C)C`, the Ratio in data set [1] is 1.15; in data set [2], 1.49; in data set [3] it was 1.02; in data set [4], 1.05. Also, the half-maximal inhibitory concentration (IC50) (with L5178Y [5]; in the data set on L5178Y [6]; in data set [7]; in data set [8]; with L5178Y [9]; in the data set with L5178Y [10]) was above 100 µM each time. For the same molecule, the IC50 (with COLO 205; in data set [11]) was above 100 µM each time.

Consider `C/C1=C\[C@@H]2[C@H](CC[C@]3(CO3)[C@H](OC(=O)c3ccc(C(F)(F)F)cc3)[C@H]3[C@@H](OC(=O)c4ccc(C(F)(F)F)cc4)[C@@H](C)C[C@]3(O)C1=O)C2(C)C`, for which the Ratio in data set [1] came to 38.72; in [2], 38.97; in [3], 2.52; in data set [4], 3.39. Moreover, the IC50 (in the data set with L5178Y [5]; with L5178Y [6]; in data set [7]; in [8]; in the data set with L5178Y [9]; in the data set on L5178Y [10]) was above 100 µM in each case. The IC50 (in the data set with COLO 205; in [11]) was above 100 µM each time.

`C/C1=C\[C@@H]2[C@H](CC[C@]3(CO3)[C@H](OC(=O)C34CC5CC(CC(C5)C3)C4)[C@H]3[C@@H](OC(=O)C45CC6CC(CC(C6)C4)C5)[C@@H](C)C[C@]3(O)C1=O)C2(C)C`: the Ratio in data set [1] is 22.36; in data set [2] it was 31.69; in data set [3] it was 1.2; in data set [4] it was 1.64. For the same molecule, the concentration for half-maximal inhibition (IC50) in the data set on L5178Y [5] is above 50 µM; in the data set with L5178Y [6], above 50 µM; in data set [7], above 50 µM; in data set [8], 27.6 µM; with L5178Y [9] it was above 50 µM; in the data set with L5178Y [10] it was above 50 µM. For the same molecule, the IC50 (with COLO 205; in [11]) was above 50 µM in each case. In addition, the “Ratio IC50” value in data set [12] was above 1.81.

`CCN(CC)C(=O)O[C@@H]1[C@@H]2[C@@H](OC(=O)N(CC)CC)[C@]3(CC[C@H]4[C@@H](/C=C(\C)C(=O)[C@@]2(O)C[C@@H]1C)C4(C)C)CO3`: the Ratio in data set [1] is 1.71; in data set [2] it was 10.62; in data set [3], 1.54; in data set [4] it was 3.54. Also, the IC50 (with L5178Y [5]; with L5178Y [6]; in data set [7]; in data set [8]; with L5178Y [9]; with L5178Y [10]) was above 100 µM throughout. Further, the IC50 (in the data set with COLO 205; in [11]) was above 100 µM throughout.

Regarding `C/C1=C\[C@@H]2[C@H](CC[C@]3(CO3)[C@H](OC(=O)N3CCOCC3)[C@H]3[C@@H](OC(=O)N4CCOCC4)[C@@H](C)C[C@]3(O)C1=O)C2(C)C`, the Ratio worked out at 1.22 in data set [1], 1.38 in [2], 1.09 in data set [3] and 1.42 in data set [4]. Besides, the IC50 (in the data set on L5178Y [5]; in the data set with L5178Y [6]; in data set [7]; in data set [8]; in the data set on L5178Y [9]; in the data set on L5178Y [10]) was above 100 µM throughout. Moreover, the half-maximal inhibitory concentration (IC50) (in the data set with COLO 205; in data set [11]) was above 100 µM throughout.

For `CO[C@H]1[C@@H]2[C@H](CC[C@]3(CO)O[C@@H]3[C@H]3[C@@H](O)[C@@H](C)C[C@]3(O)C(=O)[C@@H]1C)C2(C)C`, the Ratio in [1] was found to be 1.22; in data set [2], 18.3; in [3] it was 1.1; in [4], 2.26. The IC50 (in the data set on L5178Y [5]; in the data set on L5178Y [6]; in data set [7]; in [8]; with L5178Y [9]; in the data set with L5178Y [10]) was above 100 µM throughout. For the same molecule, the IC50 (in the data set with COLO 205; in [11]) was above 100 µM in each case.

Consider `C/C1=C\[C@@H]2[C@H](CC[C@@](C)(O)[C@H](O)[C@H]3[C@@H](O)[C@@H](C)C[C@]3(O)[C@@H]1O)C2(C)C`, for which the Ratio came to 0.51 in data set [1], 11.61 in data set [2], 1.02 in [3] and 3.81 in data set [4]. The IC50 (in the data set on L5178Y [5]; with L5178Y [6]; in [7]; in data set [8]; in the data set on L5178Y [9]; in the data set with L5178Y [10]) was above 100 µM each time. Moreover, the IC50 (in the data set with COLO 205; in [11]) was above 100 µM each time.

As for `C/C1=C\[C@@H]2[C@H](CC[C@@](C)(O)[C@H](O)[C@H]3[C@@H](O)[C@@H](C)C[C@]3(O)[C@H]1O)C2(C)C`, the Ratio came to 0.54 in data set [1], 0.59 in [2], 1 in data set [3] and 1.11 in data set [4]. The half-maximal inhibitory concentration (IC50) (in the data set with L5178Y [5]; with L5178Y [6]; in [7]; in [8]; in the data set with L5178Y [9]; in the data set on L5178Y [10]) was above 100 µM each time. Further, the IC50 (in the data set with COLO 205; in data set [11]) was above 100 µM in each case.

As for `CCO[C@@H]1[C@@H]2C(=O)C(O)(C[C@H](C)[C@@H]2O)/C(C)=C\[C@@H]2[C@H](CC[C@@]1(O)CO)C2(C)C`, the Ratio in data set [1] is listed as 5.85; in data set [2] it was 38.92; in [3] it was 1.5; in data set [4], 3.18. Also, the IC50 (in the data set on L5178Y [5]; in the data set on L5178Y [6]; in data set [7]; in [8]; in the data set with L5178Y [9]; in the data set with L5178Y [10]) was above 100 µM in each case. Also, the IC50 (with COLO 205; in data set [11]) was above 100 µM throughout.

In the case of `CCC(=O)OC[C@]1(O)CC[C@H]2[C@@H](/C=C(\C)C(=O)[C@@]3(O)C[C@H](C)[C@H](OC(=O)CC)[C@@H]3[C@H]1O)C2(C)C`, the Ratio in data set [1] is 1.16; in data set [2], 2.07; in [3] it was 1.1; in [4], 2.25. Besides, the IC50 (with L5178Y [5]; in the data set with L5178Y [6]; in data set [7]; in [8]; with L5178Y [9]; in the data set on L5178Y [10]) was above 100 µM each time. Further, the concentration for half-maximal inhibition (IC50) (in the data set on COLO 205; in data set [11]) was above 100 µM each time.

As for `COc1ccc(CCN(C)CCCC(C#N)(c2ccc(OC)c(OC)c2)C(C)C)cc1OC` (configuration not stated), in [4], the Ratio came to 8.95.
